Measurements from PubChem BioAssay (NCI).
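Abbreviation: GI50, concentration required for 50% inhibition of growth. Definition used: TGI = concentration required for complete inhibition of growth.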

What was measured:
Test in all cases: NCI anticancer screen, dose series, 384-well format
786-0 renal = test system: 786-0 renal
A498 renal = test system: A498 renal
A549 NSCLC = test system: A549 NSCLC
ACHN renal = test system: ACHN renal
BT-549 breast = test system: BT-549 breast
CAKI-1 renal = test system: CAKI-1 renal
CCRF-CEM leukemia = test system: CCRF-CEM leukemia
COLO 205 colon = test system: COLO 205 colon
DU-145 prostate = test system: DU-145 prostate
EKVX NSCLC = test system: EKVX NSCLC
HCC-2998 colon = test system: HCC-2998 colon
HCT-116 colon = test system: HCT-116 colon
HCT-15 colon = test system: HCT-15 colon
HL-60(TB) leukemia = test system: HL-60(TB) leukemia
HOP-62 NSCLC = test system: HOP-62 NSCLC
HOP-92 NSCLC = test system: HOP-92 NSCLC
HS 578T breast = test system: HS 578T breast
HT29 colon = test system: HT29 colon
IGROV1 ovarian = test system: IGROV1 ovarian
K-562 leukemia = test system: K-562 leukemia
KM12 colon = test system: KM12 colon
LOX IMVI melanoma = test system: LOX IMVI melanoma
M14 melanoma = test system: M14 melanoma
MALME-3M melanoma = test system: MALME-3M melanoma
MCF7 breast = test system: MCF7 breast
MDA-MB-231 breast = test system: MDA-MB-231 breast
MDA-MB-435 melanoma = test system: MDA-MB-435 melanoma
MDA-MB-468 breast = test system: MDA-MB-468 breast
MOLT-4 leukemia = test system: MOLT-4 leukemia
NCI-H226 lung = test system: NCI-H226 lung
NCI-H23 lung = test system: NCI-H23 lung
NCI-H322M lung = test system: NCI-H322M lung
NCI-H460 NSCLC = test system: NCI-H460 NSCLC
NCI-H522 lung = test system: NCI-H522 lung
NCI/ADR-RES ovarian = test system: NCI/ADR-RES ovarian
OVCAR-3 ovarian = test system: OVCAR-3 ovarian
OVCAR-4 ovarian = test system: OVCAR-4 ovarian
OVCAR-5 ovarian = test system: OVCAR-5 ovarian
OVCAR-8 ovarian = test system: OVCAR-8 ovarian
PC-3 prostate = test system: PC-3 prostate
RPMI-8226 leukemia = test system: RPMI-8226 leukemia
RXF 393 renal = test system: RXF 393 renal
SF-268 CNS = test system: SF-268 CNS
SF-295 CNS = test system: SF-295 CNS
SF-539 CNS = test system: SF-539 CNS
SK-MEL-28 melanoma = test system: SK-MEL-28 melanoma
SK-MEL-5 melanoma = test system: SK-MEL-5 melanoma
SK-OV-3 ovarian = test system: SK-OV-3 ovarian
SN12C renal = test system: SN12C renal
SNB-19 CNS = test system: SNB-19 CNS
SNB-75 CNS = test system: SNB-75 CNS
SR leukemia = test system: SR leukemia
SW-620 colon = test system: SW-620 colon
T-47D breast = test system: T-47D breast
TK-10 renal = test system: TK-10 renal
U251 glioblastoma = test system: U251 glioblastoma
UACC-257 melanoma = test system: UACC-257 melanoma
UACC-62 melanoma = test system: UACC-62 melanoma
UO-31 renal = test system: UO-31 renal

`CC1CCC(n2c3cnccc3c3cnc(Nc4ccc5c(n4)CCN(C(=O)CO)C5)nc32)CC1` (stereo not given) gave a GI50 ([…]-0 renal) of 12.4 µM, a TGI (786-0 renal) of 66.9 µM and a GI50 (A498 renal) of 1.78 µM. It also gave a TGI (A498 renal) of 9.42 µM, a GI50 (A549 NSCLC) of 2.15 µM and a TGI (A549 NSCLC) of over 100 µM. It also gave a GI50 (ACHN renal) of 2.59 µM, a TGI (ACHN renal) of over 21.9 µM and a GI50 (BT-549 breast) of 6.54 µM. For the same compound, the TGI (BT-549 breast) was over 72.4 µM, the GI50 (CAKI-1 renal) was 1.42 µM and the TGI (CAKI-1 renal) was over 28 µM. It also gave a GI50 (CCRF-CEM leukemia) of 0.638 µM, a TGI (CCRF-CEM leukemia) of 2.31 µM and a GI50 (COLO 205 colon) of 0.846 µM. For the same compound, the GI50 (DU-145 prostate) was 7.86 µM, the TGI (DU-145 prostate) was 42.2 µM and the TGI (EKVX NSCLC) was over 100 µM. The GI50 (HCC-2998 colon) was 1.69 µM, the TGI (HCC-2998 colon) was over 100 µM and the GI50 (HCT-116 colon) was 1.69 µM. It also gave a TGI (HCT-116 colon) of 16.2 µM, a GI50 (HCT-15 colon) of 0.656 µM and a TGI (HCT-15 colon) of over 100 µM. For the same compound, the GI50 (HL-60(TB) leukemia) was 0.286 µM, the TGI (HL-60(TB) leukemia) was 1.75 µM and the GI50 (HOP-62 NSCLC) was 3.66 µM. For the same compound, the TGI (HOP-62 NSCLC) was over 100 µM, the GI50 (HOP-92 NSCLC) was 6.32 µM and the TGI (HOP-92 NSCLC) was over 20.6 µM. It also gave a GI50 (HS 578T breast) of 18.3 µM, a TGI (HS 578T breast) of over 100 µM and a GI50 (HT29 colon) of 6.05 µM. It also gave a TGI (HT29 colon) of over 100 µM, a GI50 (IGROV1 ovarian) of 8.39 µM and a TGI (IGROV1 ovarian) of over 100 µM. The GI50 (K-562 leukemia) was 3.64 µM, the TGI (K-562 leukemia) was over 100 µM and the GI50 (KM12 colon) was 0.293 µM. It also gave a TGI (KM12 colon) of 4.05 µM, a GI50 (LOX IMVI melanoma) of 2.4 µM and a TGI (LOX IMVI melanoma) of over 100 µM. It also gave a GI50 (M14 melanoma) of 8.48 µM, a TGI (M14 melanoma) of over 100 µM and a GI50 (MALME-3M melanoma) of 19.8 µM. The TGI (MALME-3M melanoma) was over 100 µM, the GI50 (MCF7 breast) was 1.04 µM and the TGI (MCF7 breast) was over 100 µM. It also gave a GI50 (MDA-MB-231 breast) of 2.91 µM, a TGI (MDA-MB-231 breast) of 14.4 µM and a GI50 (MDA-MB-435 melanoma) of 8.55 µM. It also gave a TGI (MDA-MB-435 melanoma) of over 100 µM, a GI50 (MDA-MB-468 breast) of 13.5 µM and a TGI (MDA-MB-468 breast) of 57.8 µM. For the same compound, the GI50 (MOLT-4 leukemia) was 0.278 µM, the TGI (MOLT-4 leukemia) was 2.71 µM and the GI50 (NCI-H226 lung) was 9.33 µM. It also gave a TGI (NCI-H226 lung) of over 100 µM, a GI50 (NCI-H23 lung) of 3.4 µM and a TGI (NCI-H23 lung) of over 100 µM. The GI50 (NCI-H322M lung) was 8.61 µM, the TGI (NCI-H322M lung) was over 26.4 µM and the GI50 (NCI-H460 NSCLC) was 0.749 µM. The TGI (NCI-H460 NSCLC) was 4.74 µM, the GI50 (NCI-H522 lung) was 6.06 µM and the TGI (NCI-H522 lung) was over 100 µM. The GI50 (NCI/ADR-RES ovarian) was 13.9 µM, the TGI (NCI/ADR-RES ovarian) was over 100 µM and the GI50 (OVCAR-3 ovarian) was 5.68 µM. It also gave a TGI (OVCAR-3 ovarian) of 12.6 µM, a GI50 (OVCAR-4 ovarian) of 15.1 µM and a TGI (OVCAR-4 ovarian) of over 40 µM. For the same compound, the GI50 (OVCAR-5 ovarian) was 2.23 µM, the TGI (OVCAR-5 ovarian) was over 100 µM and the GI50 (OVCAR-8 ovarian) was 6.42 µM. The TGI (OVCAR-8 ovarian) was over 100 µM, the GI50 (PC-3 prostate) was 7.58 µM and the TGI (PC-3 prostate) was over 81.2 µM. For the same compound, the GI50 (RPMI-8226 leukemia) was 0.253 µM, the TGI (RPMI-8226 leukemia) was 1.71 µM and the GI50 (RXF 393 renal) was over 20.7 µM. For the same compound, the TGI (RXF 393 renal) was over 100 µM, the GI50 (SF-268 CNS) was 4.47 µM and the TGI (SF-268 CNS) was 15.2 µM. For the same compound, the TGI (SF-295 CNS) was over 73.9 µM, the GI50 (SF-539 CNS) was 5.87 µM and the TGI (SF-539 CNS) was over 100 µM. For the same compound, the GI50 (SK-MEL-28 melanoma) was 11.9 µM, the TGI (SK-MEL-28 melanoma) was over 100 µM and the GI50 (SK-MEL-5 melanoma) was 2.36 µM. It also gave a TGI (SK-MEL-5 melanoma) of over 94.8 µM, a GI50 (SK-OV-3 ovarian) of 21.6 µM and a TGI (SK-OV-3 ovarian) of over 100 µM. For the same compound, the GI50 (SN12C renal) was 16.3 µM, the TGI (SN12C renal) was over 100 µM and the GI50 (SNB-19 CNS) was 7.56 µM. The TGI (SNB-19 CNS) was over 100 µM, the GI50 (SNB-75 CNS) was 4.47 µM and the TGI (SNB-75 CNS) was over 20.3 µM. For the same compound, the GI50 (SR leukemia) was 0.316 µM, the TGI (SR leukemia) was 0.829 µM and the GI50 (SW-620 colon) was 1.05 µM. For the same compound, the TGI (SW-620 colon) was 14.2 µM, the GI50 (T-47D breast) was over 100 µM and the TGI (T-47D breast) was over 100 µM. It also gave a GI50 (TK-10 renal) of 5.16 µM, a TGI (TK-10 renal) of over 100 µM and a GI50 (U251 glioblastoma) of 7.16 µM. For the same compound, the TGI (U251 glioblastoma) was over 100 µM, the GI50 (UACC-257 melanoma) was over 100 µM and the TGI (UACC-257 melanoma) was over 100 µM. The GI50 (UACC-62 melanoma) was 6.15 µM, the TGI (UACC-62 melanoma) was over 100 µM and the GI50 (UO-31 renal) was 15.1 µM. For the same compound, the TGI (UO-31 renal) was over 100 µM.
